Measurements as given in patent US12286442B2, “Methods and materials for increasing transcription factor eb polypeptide levels” (University of Pittsburgh—Of the Commonwealth System of …, priority 2019, dated 2025).

tested on: TFEB; assay: High content screen measuring TFEB nuclear accumulation (TFEB nuclear/cytosol ratio) in BEAS-2B cells stably expressing TFEB-EGFP; assay type: cell-based, human; details: 18 hours incubation
How it was run: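 BEAS-2B cells stably expressing TFEB-EGFP (~2300–2500 per well) pre-incubated 8 hours, then exposed to serially diluted compounds (DMEM low glucose, 2% FBS) for 18 hours, PFA-fixed and DAPI-stained. Imaged nuclear (DAPI mask) vs cytosolic (expanded mask) TFEB-GFP; activity = minimal concentration raising nuclear/cytosol ratio by 25%.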

SMILES	efficacy (minimal compound concentration needed to increase TFEB nuclear/cytosol ratio by 25%)
O=C(Cn1c(=O)n(CC2CCCO2)c(=O)c2ccc(C(=O)NCCc3ccccc3)cc21)Nc1ccc(Br)cc1 (stereo not drawn) [Compound 217]	+ (“+” equals >25 μM)
c1cnc2ccc(Nc3nc(-c4ccncc4)nc4ccccc34)cc2c1 [Compound 57]	+++ (“+++” equals ≤1 μM)
c1cnc2cc(-c3ccncc3)nc(Nc3ccc4[nH]ccc4c3)c2c1 [Compound 242]	+++ (“+++” equals ≤1 μM)
Cc1cc(F)cc(Nc2nc(-c3ccncc3C)nc3ccccc23)c1 [Compound 53]	+ (“+” equals >25 μM)
COc1ccc(-n2c(=O)c3ccccc3n(Cc3ccccc3F)c2=O)cc1 [Compound 235]	++ (“++” equals between ≤25 μM and >1 μM)
c1ccc2c(Nc3ccc4cn[nH]c4c3)nc(-c3ccncc3)nc2c1 [Compound 11]	+++ (“+++” equals ≤1 μM)
CN(c1cccc(F)c1)c1nc(-c2ccncc2)nc2ccccc12 [Compound 4]	+++ (“+++” equals ≤1 μM)
Oc1ccc(-c2nc(Nc3ccc4[nH]ccc4c3)c3ccccc3n2)cc1 [Compound 63]	+ (“+” equals >25 μM)
Oc1ccc(-c2nc(Nc3cccc(F)c3)c3ccccc3n2)cc1 [Compound 65]	+ (“+” equals >25 μM)
Cc1cc(F)cc(Nc2nc(-c3ccncc3)nc3ccccc23)c1 [Compound 184]	++ (“++” equals between ≤25 μM and >1 μM)
Fc1cc(Nc2nc(-c3cc[nH]c3)nc3ncccc23)cc2cc[nH]c12 [Compound 385]	++ (“++” equals between ≤25 μM and >1 μM)
Cn1ncc2cc(Nc3nc(-c4ccncc4)nc4ccccc34)ccc21 [Compound 31]	+++ (“+++” equals ≤1 μM)
c1ccc2c(Nc3cccc4[nH]ccc34)nc(-c3ccncc3)nc2c1 [Compound 97]	+++ (“+++” equals ≤1 μM)
COc1ccc(-c2nc(Nc3ccc(C)c(F)c3)c3ccccc3n2)cc1 [Compound 163]	+ (“+” equals >25 μM)
c1ccc2c(Nc3ccc4[nH]ncc4c3)nc(N3CCNCC3)nc2c1 [Compound 50]	+ (“+” equals >25 μM)
c1cnc2ccc(Nc3nc(-c4ccncc4)nc4ccncc34)cc2c1 [Compound 127]	++ (“++” equals between ≤25 μM and >1 μM)
c1ccc2c(Nc3ccc4cnccc4c3)nc(-c3cncs3)nc2c1 [Compound 388]	+ (“+” equals >25 μM)
c1cc(-c2nc(Nc3ccc4[nH]ncc4c3)c3cnccc3n2)ccn1 [Compound 85]	+++ (“+++” equals ≤1 μM)
Cc1cnccc1-c1nc(Nc2ccc3[nH]ncc3c2)c2ccccc2n1 [Compound 45]	+ (“+” equals >25 μM)
Cc1nc2ccc(Nc3nc(-c4ccncc4)nc4ncccc34)cc2s1 [Compound 128]	+++ (“+++” equals ≤1 μM)
Cc1cccc2c(Nc3ccc4[nH]ccc4c3)nc(-c3ccncc3)nc12 [Compound 117]	+++ (“+++” equals ≤1 μM)
c1ccc2c(Nc3cccc4[nH]ncc34)nc(-c3ccncc3)nc2c1 [Compound 99]	+++ (“+++” equals ≤1 μM)
Cc1cc(F)cc(Nc2nc(-c3ccncc3)nc3ccccc23)c1 [Compound 1]	+++ (“+++” equals ≤1 μM)
c1ccc2c(Nc3ccc4[nH]ccc4c3)nc(-c3ccncc3)cc2c1 [Compound 49]	+ (“+” equals >25 μM)
Cc1nc2ccc(Nc3nc(-c4ccncc4)nc4c(C)cccc34)cc2s1 [Compound 378]	+++ (“+++” equals ≤1 μM)
c1ccc2c(NC3CCN(C4CC4)CC3)nc(-c3ccncc3)nc2c1 [Compound 175]	+ (“+” equals >25 μM)
FC(F)(F)c1cccc(Nc2nc(-c3ccncc3)nc3ccccc23)c1 [Compound 189]	++ (“++” equals between ≤25 μM and >1 μM)
Fc1c(-c2ccncc2)nc(Nc2ccc3nc(C4CC4)sc3c2)c2cccnc12 [Compound 332]	+++ (“+++” equals ≤1 μM)
CCCc1nc2ccc(Nc3nc(-c4ccncc4)nc4ncccc34)cc2o1 [Compound 363]	+++ (“+++” equals ≤1 μM)
Cn1c(=O)c2ccccc2n(CC(=O)Nc2ccccc2)c1=O [Compound 224]	+ (“+” equals >25 μM)

tested on: BEAS-2B cells; assay: Toxicity: compound concentration needed to induce greater than 50 percent of cell loss; assay type: cell-based, human; details: 18 hours incubation
How it was run: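 BEAS-2B cells stably expressing TFEB-EGFP treated with serial compound dilutions for 18 h, then PFA-fixed, DAPI-stained and imaged. Toxicity scored as the concentration causing >50% cell loss, binned as ≥25 μM, <25 and >1 μM, or ≤1 μM ("+++").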

SMILES	toxicity (compound concentration needed to induce greater than 50 percent of cell loss)
O=C(Cn1c(=O)n(CC2CCCO2)c(=O)c2ccc(C(=O)NCCc3ccccc3)cc21)Nc1ccc(Br)cc1 (stereo not drawn) [Compound 217]	+ (cell loss of greater than 50 percent at a concentration that equals or is greater than 25 μM was represented as)
c1cnc2ccc(Nc3nc(-c4ccncc4)nc4ccccc34)cc2c1 [Compound 57]	+ (cell loss of greater than 50 percent at a concentration that equals or is greater than 25 μM was represented as)
c1cnc2cc(-c3ccncc3)nc(Nc3ccc4[nH]ccc4c3)c2c1 [Compound 242]	+ (cell loss of greater than 50 percent at a concentration that equals or is greater than 25 μM was represented as)
Cc1cc(F)cc(Nc2nc(-c3ccncc3C)nc3ccccc23)c1 [Compound 53]	+ (cell loss of greater than 50 percent at a concentration that equals or is greater than 25 μM was represented as)
COc1ccc(-n2c(=O)c3ccccc3n(Cc3ccccc3F)c2=O)cc1 [Compound 235]	+ (cell loss of greater than 50 percent at a concentration that equals or is greater than 25 μM was represented as)
c1ccc2c(Nc3ccc4cn[nH]c4c3)nc(-c3ccncc3)nc2c1 [Compound 11]	+ (cell loss of greater than 50 percent at a concentration that equals or is greater than 25 μM was represented as)
CN(c1cccc(F)c1)c1nc(-c2ccncc2)nc2ccccc12 [Compound 4]	+++ (cell loss of greater than 50 percent at a concentration that equals or is less than 1 μM was represented as “+++.”)
Oc1ccc(-c2nc(Nc3ccc4[nH]ccc4c3)c3ccccc3n2)cc1 [Compound 63]	+ (cell loss of greater than 50 percent at a concentration that equals or is greater than 25 μM was represented as)
Oc1ccc(-c2nc(Nc3cccc(F)c3)c3ccccc3n2)cc1 [Compound 65]	+ (cell loss of greater than 50 percent at a concentration that equals or is greater than 25 μM was represented as)
Cc1cc(F)cc(Nc2nc(-c3ccncc3)nc3ccccc23)c1 [Compound 184]	+ (cell loss of greater than 50 percent at a concentration that equals or is greater than 25 μM was represented as)
Fc1cc(Nc2nc(-c3cc[nH]c3)nc3ncccc23)cc2cc[nH]c12 [Compound 385]	+ (cell loss of greater than 50 percent at a concentration that equals or is greater than 25 μM was represented as)
Cn1ncc2cc(Nc3nc(-c4ccncc4)nc4ccccc34)ccc21 [Compound 31]	+++ (cell loss of greater than 50 percent at a concentration that equals or is less than 1 μM was represented as “+++.”)
c1ccc2c(Nc3cccc4[nH]ccc34)nc(-c3ccncc3)nc2c1 [Compound 97]	+ (cell loss of greater than 50 percent at a concentration that equals or is greater than 25 μM was represented as)
COc1ccc(-c2nc(Nc3ccc(C)c(F)c3)c3ccccc3n2)cc1 [Compound 163]	+ (cell loss of greater than 50 percent at a concentration that equals or is greater than 25 μM was represented as)
c1ccc2c(Nc3ccc4[nH]ncc4c3)nc(N3CCNCC3)nc2c1 [Compound 50]	+ (cell loss of greater than 50 percent at a concentration that equals or is greater than 25 μM was represented as)
c1cnc2ccc(Nc3nc(-c4ccncc4)nc4ccncc34)cc2c1 [Compound 127]	+ (cell loss of greater than 50 percent at a concentration that equals or is greater than 25 μM was represented as)
c1ccc2c(Nc3ccc4cnccc4c3)nc(-c3cncs3)nc2c1 [Compound 388]	+ (cell loss of greater than 50 percent at a concentration that equals or is greater than 25 μM was represented as)
c1cc(-c2nc(Nc3ccc4[nH]ncc4c3)c3cnccc3n2)ccn1 [Compound 85]	+ (cell loss of greater than 50 percent at a concentration that equals or is greater than 25 μM was represented as)
Cc1cnccc1-c1nc(Nc2ccc3[nH]ncc3c2)c2ccccc2n1 [Compound 45]	+ (cell loss of greater than 50 percent at a concentration that equals or is greater than 25 μM was represented as)
Cc1nc2ccc(Nc3nc(-c4ccncc4)nc4ncccc34)cc2s1 [Compound 128]	+ (cell loss of greater than 50 percent at a concentration that equals or is greater than 25 μM was represented as)
Cc1cccc2c(Nc3ccc4[nH]ccc4c3)nc(-c3ccncc3)nc12 [Compound 117]	+ (cell loss of greater than 50 percent at a concentration that equals or is greater than 25 μM was represented as)
c1ccc2c(Nc3cccc4[nH]ncc34)nc(-c3ccncc3)nc2c1 [Compound 99]	+ (cell loss of greater than 50 percent at a concentration that equals or is greater than 25 μM was represented as)
Cc1cc(F)cc(Nc2nc(-c3ccncc3)nc3ccccc23)c1 [Compound 1]	+ (cell loss of greater than 50 percent at a concentration that equals or is greater than 25 μM was represented as)
c1ccc2c(Nc3ccc4[nH]ccc4c3)nc(-c3ccncc3)cc2c1 [Compound 49]	+ (cell loss of greater than 50 percent at a concentration that equals or is greater than 25 μM was represented as)
Cc1nc2ccc(Nc3nc(-c4ccncc4)nc4c(C)cccc34)cc2s1 [Compound 378]	+ (cell loss of greater than 50 percent at a concentration that equals or is greater than 25 μM was represented as)
c1ccc2c(NC3CCN(C4CC4)CC3)nc(-c3ccncc3)nc2c1 [Compound 175]	+ (cell loss of greater than 50 percent at a concentration that equals or is greater than 25 μM was represented as)
FC(F)(F)c1cccc(Nc2nc(-c3ccncc3)nc3ccccc23)c1 [Compound 189]	+ (cell loss of greater than 50 percent at a concentration that equals or is greater than 25 μM was represented as)
Fc1c(-c2ccncc2)nc(Nc2ccc3nc(C4CC4)sc3c2)c2cccnc12 [Compound 332]	+ (cell loss of greater than 50 percent at a concentration that equals or is greater than 25 μM was represented as)
CCCc1nc2ccc(Nc3nc(-c4ccncc4)nc4ncccc34)cc2o1 [Compound 363]	+ (cell loss of greater than 50 percent at a concentration that equals or is greater than 25 μM was represented as)
Cn1c(=O)c2ccccc2n(CC(=O)Nc2ccccc2)c1=O [Compound 224]	+ (cell loss of greater than 50 percent at a concentration that equals or is greater than 25 μM was represented as)
